Reference: patent publication US8981111B2 (priority 2008, dated 2015)

Assay: log P (HPLC/MS data of the preparation examples)
Settings: for log p: linear gradient 10% to 95% acetonitrile
[1] = HPLC (LC-MS) method [b]: pH 2.7, 0.1% formic acid in water and acetonitrile, EEC directive 79/831 Annex V.A8
[2] = LC-MS, method [b]: pH 2.7 with 0.1% formic acid in water and acetonitrile
[3] = method [b]: LC-MS at pH 2.7, 0.1% formic acid in water / acetonitrile

Molecule: 2-(6-{[({(3-bromo-4-methoxyphenyl)[3-chloro-5-(trifluoromethyl)pyridin-2-yl]methylene}amino)oxy]methyl}pyridin-2-yl)-1H-isoindole-1,3(2H)-dione [Example 430]
- log P(HCOOH): 4.78
- log p [1]: 1.67^[b]

Molecule: 2-[({[(1-methyl-1H-imidazol-2-yl)(phenyl)methylene]amino}oxy)methyl]pyrimidin-4-amine [Example 7]
- log p [2]: 1.26^[b]
- log P(Neutral) (Neutral): 1.42

Molecule: 2-[({[(1-methyl-1H-imidazol-5-yl)(phenyl)methylene]amino}oxy)methyl]pyrimidin-4-amine [Example 105]
- log P(HCOOH): < 0.23
- log p [2]: 5.05^[b]

Molecule: 2-methyl-N-{4-[({[(1-methyl-1H-imidazol-5-yl)(phenyl)methylene]amino}-oxy)methyl]-1,3-thiazol-2-yl}propanamide [Example 143]
- log P(HCOOH): 1.63
- log p [3]: 1.11^[b]

Molecule: 2-{6-[({[(1-methyl-1H-imidazol-5-yl)(3-thienyl)methylene]amino}oxy)-methyl]pyridin-2-yl}-1H-isoindole-1,3(2H)-dione [Example 491]
- log P(HCOOH): 1.73
- log p [1]: 3.67^[b]

Molecule: 6-[({[(1-methyl-1H-imidazol-5-yl)(phenyl)methylene]amino}oxy)methyl]pyridin-2-amine [Example 108]
- log P(HCOOH): 0.29
- log p [2]: 4.75^[b]

Molecule: 6-{[({(3-bromo-4-methoxyphenyl)[3-chloro-5-(trifluoromethyl)pyridin-2-yl]methylene}amino)oxy]methyl}pyridin-2-amine [Example 432]
- log P(HCOOH): 2.54
- log p [1]: 1.99^[b]

Molecule: Cn1cncc1C(=NOCc1cccc(N)n1)c1ccccc1 (single isomer, unassigned) [Example 97]
- log p [2]: 0.25^[b]

Molecule: Cn1cncc1C(=NOCc1cccc(N)n1)c1ccccc1 (single isomer, unassigned) [Example 98]
- log p [2]: 0.29^[b]

Molecule: Cn1cncc1C(=NOCc1cccc(NC(=O)C(C)(C)C)n1)c1ccccc1 (single isomer, unassigned) [Example 123]
- log p [2]: 2.1^[b]

Molecule: Cn1cncc1C(=NOCc1cccc(NC(=O)C(C)(C)C)n1)c1ccccc1 (single isomer, unassigned) [Example 126]
- log p [2]: 1.85^[b]

Molecule: Cc1nc(C(=NOCc2cccc(N3C(=O)c4ccccc4C3=O)n2)c2ccccc2)cs1 (single isomer, unassigned) [Example 168]
- log p [3]: 3.27^[b]

Molecule: Cc1nc(C(=NOCc2cccc(N)n2)c2ccccc2)cs1 (single isomer, unassigned) [Example 169]
- log p [3]: 1.7^[b]

Molecule: Cc1nc(C(=NOCc2cccc(N3C(=O)c4ccccc4C3=O)n2)c2ccccc2)cs1 (single isomer, unassigned) [Example 170]
- log p [3]: 3.55^[b]

Molecule: Cc1nc(C(=NOCc2cccc(NC(=O)CC(C)C)n2)c2ccccc2)cs1 (single isomer, unassigned) [Example 171]
- log p [3]: 3.46^[b]

Molecule: Cc1nc(C(=NOCc2cccc(NC(=O)Cc3ccccc3)n2)c2ccccc2)cs1 (single isomer, unassigned) [Example 173]
- log p [3]: 3.61^[b]

Molecule: Cc1nc(C(=NOCc2cccc(N)n2)c2ccccc2)cs1 (single isomer, unassigned) [Example 174]
- log p [3]: 1.47^[b]

Molecule: CCCCCC(=O)Nc1cccc(CON=C(c2ccccc2)c2csc(C)n2)n1 (single isomer, unassigned) [Example 188]
- log p [3]: 3.89^[b]

Molecule: CCCCCC(=O)Nc1cccc(CON=C(c2ccccc2)c2csc(C)n2)n1 (single isomer, unassigned) [Example 189]
- log p [3]: 4.26^[b]

Molecule: Cc1nc(C(=NOCc2cccc(NC(=O)CC(C)C)n2)c2ccccc2)cs1 (single isomer, unassigned) [Example 190]
- log p [3]: 3.75^[b]

Molecule: Cc1nc(C(=NOCc2cccc(NC(=O)Cc3ccccc3)n2)c2ccccc2)cs1 (single isomer, unassigned) [Example 191]
- log p [3]: 3.87^[b]

Molecule: CCCCCOC(=O)Nc1cccc(CON=C(c2ccccc2)c2ocnc2C)n1 (single isomer, unassigned) [Example 318]
- log p [2]: 4.34^[b]

Molecule: CCCCCOC(=O)Nc1cccc(CON=C(c2ccccc2)c2ocnc2C)n1 (single isomer, unassigned) [Example 319]
- log p [2]: 4.54^[b]

Molecule: CCCCCOC(=O)Nc1nc(CON=C(c2ccccc2)c2ocnc2C)cs1 (single isomer, unassigned) [Example 322]
- log p [2]: 3.87^[b]

Molecule: CCCCCC(=O)Nc1cccc(CON=C(c2ccccc2)c2ocnc2C)n1 (single isomer, unassigned) [Example 323]
- log p [2]: 3.67^[b]

Molecule: Cc1ncoc1C(=NOCc1csc(N)n1)c1ccccc1 (single isomer, unassigned) [Example 350]
- log p [2]: 1.3^[b]

Molecule: Cn1cncc1C(=NOCc1cccc(N)n1)c1ccsc1 (single isomer, unassigned) [Example 418]
- log p [1]: 0.39^[b]

Molecule: Cn1cncc1C(=NOCc1cccc(N)n1)c1ccsc1 (single isomer, unassigned) [Example 419]
- log p [1]: 0.32^[b]

Molecule: CCCCCC(=O)Nc1cccc(CON=C(c2ccsc2)c2cncn2C)n1 (single isomer, unassigned) [Example 426]
- log p [1]: 1.99^[b]

Molecule: CCCCCC(=O)Nc1cccc(CON=C(c2ccsc2)c2cncn2C)n1 (single isomer, unassigned) [Example 427]
- log p [1]: 1.99^[b]

Molecule: CCCCCOC(=O)Nc1nc(CON=C(c2cccs2)c2cncn2C)cs1 (single isomer, unassigned) [Example 459]
- log p [1]: 2.16^[b]

Molecule: CCCCCOC(=O)Nc1nc(CON=C(c2cccs2)c2cncn2C)cs1 (single isomer, unassigned) [Example 460]
- log p [1]: 2.25^[b]

Molecule: CCCCCOC(=O)Nc1nc(CON=C(c2ccsc2)c2cncn2C)cs1 (single isomer, unassigned) [Example 461]
- log p [1]: 2.22^[b]

Molecule: CCCCCOC(=O)Nc1nc(CON=C(c2ccsc2)c2cncn2C)cs1 (single isomer, unassigned) [Example 462]
- log p [1]: 2.23^[b]

Molecule: Cc1ncc(C(=NO)c2ccccc2)n1C [1-(1,2-dimethyl-1H-imidazol-5-yl)-N-hydroxy-1-phenylmethanimine]
- chromatographic logP (HCOOH (formic acid)): 0.43

Molecule: ON=C(c1ccsc1)c1snc(Cl)c1Cl [1-(3,4-dichloro-1,2-thiazol-5-yl)-N-hydroxy-1-(3-thienyl)methanimine]
- chromatographic logP (HCOOH (formic acid)): 3.04

Molecule: Cc1cnc(C)c(C(=NO)c2ccccc2)n1 [1-(3,6-dimethylpyrazin-2-yl)-N-hydroxy-1-phenylmethanimine]
- chromatographic logP (HCOOH (formic acid)): 1.7

Molecule: COc1ccc(C(=NO)c2ncc(C(F)(F)F)cc2Cl)cc1Br [1-(3-bromo-4-methoxyphenyl)-1-[3-chloro-5-(trifluoromethyl)pyridin-2-yl]-N-hydroxymethanimine]
- chromatographic logP (HPLC/MS with HCOOH (formic acid)): 3.37

Molecule: CON(C)C(=O)c1snc(Cl)c1Cl [3,4-dichloro-N-methoxy-N-methyl-1,2-thiazole-5-carboxamide]
- chromatographic logP (HCOOH (formic acid)): 1.66

Molecule: Cc1ncc(C(=O)c2ccccc2)n1C [(1,2-dimethyl-1H-imidazol-5-yl)(phenyl)methanone]
- chromatographic logP (HCOOH (formic acid)): 0.56

Molecule: Cn1ccnc1C(=O)c1ccccc1 [(1-methyl-1H-imidazol-2-yl)(phenyl)methanone]
- chromatographic logP (HCOOH (formic acid)): 1.38

Molecule: Cn1cncc1C(=O)c1cccs1 [(1-methyl-1H-imidazol-5-yl)(2-thienyl)methanone]
- chromatographic logP (HCOOH (formic acid)): 0.52
